Results as given in patent EP0801947B1, “Use of octopirox as skin depigmentation agent” (L'OREAL, priority 1996, dated 1997).

Tested on: tyrosinase de champignons
Assay: Inhibition of the dopa-oxidase activity of mushroom tyrosinase (dopachrome formation followed by visible spectrometry at 475 nm)
Format: biochemical
Text: Un test a mis en évidence l'activité de l'octopirox comme inhibiteur de la tyrosinase par évaluation de son effet inhibiteur sur l'activité dopa-oxydase de la tyrosinase des mélanocytes de champignons.
Selon ce test, on suit par spectrométrie visible à 475 nm la quantité de dopachrome formée au cours de la chaîne de réaction de transformation de la tyrosine en mélanine, en fonction du temps. Ces réactions sont catalysées in vitro par la tyrosinase de champignons, en présence d'un co-substrat réducteur (la L-dopa en petite quantité) pour initier la réaction d'hydroxylation de la L-tyrosine en L-dopa, laquelle est ensuite oxydée catalytiquement en dopaquinone puis en dopachrome, produit intermédiaire avant les réactions d'oxydation non enzymatiques aboutissant à la formation de mélanine.
Le milieu réactionnel utilisé pour réaliser ce test comprend 1 ml d'une solution de L-tyrosine à 2.10^-3 M dans du tampon phosphate 0,1 M de pH = 6,5, 0,1 ml de solution de L-dopa à 10^-4 M dans le tampon phosphate, 0,05 ml de solution de tyrosinase de champignons à 2.400 unités/ml dans le tampon phosphate et 1,85 ml de solution de l'inhibiteur à 10^-2 M dans le tampon phosphate. Pour le témoin, la quantité d'inhibiteur a été remplacée par de l'éthanol. […]
La concentration de 10^-2 M d'octopirox dans le milieu réactionnel correspond à une quantité équimolaire par rapport à la tyrosine utilisée. […]

temps pour obtenir le même pourcentage de dopachrome formée, par exemple 100 % (inhibitor solution 10^-2 M in phosphate buffer 0,1 M pH 6,5, L-tyrosine 2.10^-3 M, L-dopa 10^-4 M, control (ethanol) 9,5 minutes, figure 1 curves (b)): 14 min
SMILES: Cc1cc(CC(C)CC(C)(C)C)n(O)c(=O)c1 (centres unmarked) [octopirox, 1-hydroxy-4-méthyl-6-(2,4,4-triméthylpentyl)-2(1H)-pyridinone]
quantité de dopachrome formée au cours du temps (inhibitor solution 10^-2 M, compared with control curve (a), figure 1, result in words): net ralentissement de la quantité de dopachrome formée au cours du temps
